Experiments:
STK6A = target: T1, STK6A (Homo sapiens, UniProt O14965); assay: DSF assay; type: binding; settings: 20 µM compound
T1 construct: purchased in-house DSF panel (SGC-style construct names; the trailing A/B is a construct suffix)
T1 sequence (O14965 122-403): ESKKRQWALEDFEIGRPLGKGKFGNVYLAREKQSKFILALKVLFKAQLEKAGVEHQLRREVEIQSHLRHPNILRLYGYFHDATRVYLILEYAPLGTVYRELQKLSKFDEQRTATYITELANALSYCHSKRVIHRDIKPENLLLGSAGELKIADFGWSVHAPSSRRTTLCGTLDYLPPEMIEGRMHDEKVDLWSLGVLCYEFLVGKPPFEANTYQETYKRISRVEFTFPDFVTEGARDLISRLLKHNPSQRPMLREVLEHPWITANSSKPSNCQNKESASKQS

MAPK15A = target: T2, MAPK15A (Homo sapiens, UniProt Q8TD08); assay: DSF assay; type: binding; settings: 20 µM compound
T2 construct: purchased in-house DSF panel (SGC-style construct names; the trailing A/B is a construct suffix)
T2 sequence (Q8TD08 1-345): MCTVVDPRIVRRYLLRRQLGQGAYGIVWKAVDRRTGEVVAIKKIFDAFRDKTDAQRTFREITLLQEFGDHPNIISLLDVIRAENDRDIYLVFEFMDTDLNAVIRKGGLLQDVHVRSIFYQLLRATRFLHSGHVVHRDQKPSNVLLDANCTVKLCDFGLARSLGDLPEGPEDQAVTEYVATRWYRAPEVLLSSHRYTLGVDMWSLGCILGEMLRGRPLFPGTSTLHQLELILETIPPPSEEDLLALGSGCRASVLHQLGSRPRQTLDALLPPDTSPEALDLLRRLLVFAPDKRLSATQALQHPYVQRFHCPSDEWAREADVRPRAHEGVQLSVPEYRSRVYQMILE

EPHA2A = target: T3, EPHA2A (Homo sapiens, UniProt P29317); assay: DSF assay; type: binding; settings: 20 µM compound
T3 construct: purchased in-house DSF panel (SGC-style construct names; the trailing A/B is a construct suffix)
T3 sequence (P29317 596-900): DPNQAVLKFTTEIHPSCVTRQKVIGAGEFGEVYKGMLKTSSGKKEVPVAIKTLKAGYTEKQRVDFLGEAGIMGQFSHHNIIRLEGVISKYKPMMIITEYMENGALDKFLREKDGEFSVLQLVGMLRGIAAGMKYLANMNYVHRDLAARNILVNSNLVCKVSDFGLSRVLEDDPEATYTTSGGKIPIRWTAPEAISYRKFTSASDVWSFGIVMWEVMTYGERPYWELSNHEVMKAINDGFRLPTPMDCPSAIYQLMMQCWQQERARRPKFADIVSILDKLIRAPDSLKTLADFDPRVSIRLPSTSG

TLK1A = target: T4, TLK1A (Homo sapiens, UniProt Q9UKI8); assay: DSF assay; type: binding; settings: 20 µM compound
T4 construct: purchased in-house DSF panel (SGC-style construct names; the trailing A/B is a construct suffix)
T4 sequence (Q9UKI8 456-734): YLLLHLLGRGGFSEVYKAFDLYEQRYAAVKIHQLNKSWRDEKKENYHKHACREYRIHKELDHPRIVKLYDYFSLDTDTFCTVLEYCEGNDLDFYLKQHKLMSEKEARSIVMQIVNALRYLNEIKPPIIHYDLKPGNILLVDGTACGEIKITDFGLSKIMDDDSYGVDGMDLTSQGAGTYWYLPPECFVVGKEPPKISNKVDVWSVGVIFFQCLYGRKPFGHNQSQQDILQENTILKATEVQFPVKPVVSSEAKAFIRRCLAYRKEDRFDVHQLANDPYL

TTK1A = target: T5, TTK1A (Homo sapiens, UniProt P33981); assay: DSF assay; type: binding; settings: 20 µM compound
T5 construct: purchased in-house DSF panel (SGC-style construct names; the trailing A/B is a construct suffix)
T5 sequence (P33981 519-808): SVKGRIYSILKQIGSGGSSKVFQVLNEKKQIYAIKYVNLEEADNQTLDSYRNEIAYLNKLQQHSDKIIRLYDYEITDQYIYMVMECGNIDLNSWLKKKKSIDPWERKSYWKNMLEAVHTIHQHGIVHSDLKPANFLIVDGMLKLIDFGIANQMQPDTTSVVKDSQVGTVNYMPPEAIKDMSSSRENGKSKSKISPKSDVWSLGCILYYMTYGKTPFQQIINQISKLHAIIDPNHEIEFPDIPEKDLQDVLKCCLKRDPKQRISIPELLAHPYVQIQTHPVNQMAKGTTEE

AURKA = target: T6, AURKA (Homo sapiens, UniProt O14965); assay: Western blot assay; type: cell-based; design: endogenous in cells; host or cells: Jurkat; settings: Jurkat cells, 6 h
T6 sequence (O14965 1-403): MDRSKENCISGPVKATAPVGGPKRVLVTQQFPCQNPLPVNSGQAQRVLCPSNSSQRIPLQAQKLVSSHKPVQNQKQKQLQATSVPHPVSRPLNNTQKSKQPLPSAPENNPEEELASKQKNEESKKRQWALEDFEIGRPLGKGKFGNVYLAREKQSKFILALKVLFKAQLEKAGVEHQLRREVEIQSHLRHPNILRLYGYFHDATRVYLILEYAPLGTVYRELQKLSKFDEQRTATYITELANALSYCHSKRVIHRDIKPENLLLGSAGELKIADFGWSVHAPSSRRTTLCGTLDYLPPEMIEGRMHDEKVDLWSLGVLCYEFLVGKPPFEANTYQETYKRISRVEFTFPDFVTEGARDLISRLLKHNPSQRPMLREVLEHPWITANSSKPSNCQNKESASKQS
Protocol: Two mL of Jurkat cells were seeded into 6 well plates (Greiner) at a density of 5·10 5 cells/mL.
The following day, cells were treated with compounds at according concentrations or DMSO for 6 hours and then lysed with 6 M Urea at 4 °C for 20 minutes. The lysates were centrifuged for 15 minutes at 16000 g and the supernatant was collected to perform the Western-Blot.
Protein quantification was performed using nanodrop One. The SDS samples were prepared […]
The samples were separated by a BIS-TRIS polyacrylamide gel polyacrylamide gel, 100 V for 1:45) followed by transfer to PVDF membranes (Millipore) at 350 mA for 140 minutes. The membranes were blocked using 5%wt/vol BSA (in TBS-T, 20 mM Tris-HCl, pH 7.5, 150 mM NaCl and 0.1% (vol/vol) Tween 20) at room temperature for 1 hour.
The blots were incubated with respective primary antibodies at 1:1000 dilution (Cell Signaling technologies: Aurora A (D3E4Q), ITK (2F12) and GAPDH (D4C6R)) at 4 °C overnight. The blots were washed with TBS-T thrice and incubated with 1:5000 dilution of horseradish peroxidase (HRP)-labelled respective secondary antibodies (Cell Signaling technologies, Anti- […]
The blots were washed with TBS-T thrice and then incubated with chemiluminescent HRP substrate (Bio-Rad) for 2 minutes. The blots were imaged and the signals were detected using the Amersham ImageQuant 800 (Cytiva).
Cell culture. Human MV4-11 ([…]) and human Jurkat ([…]) cells were cultured in RPMI- […]
°C in 5% CO2. Both media were supplemented with 10% FBS and 1% penicillin/streptomycin. […]

Question: For `CCOC(=O)c1cc(Nc2cc(C3CC3)[nH]n2)nc(Nc2ccc(CC#N)cc2)n1` [compound 5], which ΔTm at 20 µM (STK6A) is on record?
Answer: 14.4 °C

Question: What about the ΔTm at 20 µM (MAPK15A) of the same molecule?
Answer: 14.8 °C

Question: What about the ΔTm at 20 µM (EPHA2A) of the same molecule?
Answer: 6.12 °C

Question: And the ΔTm at 20 µM (TLK1A)?
Answer: 5.4 °C

Question: And the ΔTm at 20 µM (TTK1A)?
Answer: 4.46 °C

Question: `CC(C)(C)OC(=O)NCCCOCCOCCOCCCNC(=O)c1cc(Nc2cc(C3CC3)[nH]n2)nc(Nc2ccc(CC#N)cc2)n1` [5-L] was tested. Which ΔTm at 20 µM (STK6A) did it give?
Answer: 12.2 °C

Question: What about the ΔTm at 20 µM (MAPK15A) of the same molecule?
Answer: 17 °C

Question: And the ΔTm at 20 µM (EPHA2A)?
Answer: 4.48 °C

Question: And the ΔTm at 20 µM (TLK1A)?
Answer: 4.52 °C

Question: And the ΔTm at 20 µM (TTK1A)?
Answer: 4.18 °C

Question: How did the “AURKA protein levels (Western blot)” value (AURKA) turn out when `Cc1ncsc1-c1ccc(CNC(=O)[C@@H]2C[C@@H](O)CN2C(=O)[C@@H](NC(=O)CCOCCOCCOCCOCCN2CCN(c3ccc(Nc4ncc(Cl)c(Nc5ccccc5C(N)=O)n4)cc3)CC2)C(C)(C)C)cc1` [6-b] was run?
Answer: only a weak reduction in AURKA levels

Question: For `Cc1ncsc1-c1ccc(CNC(=O)[C@@H]2C[C@H](O)CN2C(=O)[C@@H](NC(=O)CCOCCOCCOCCN2CCN(c3cc(Nc4cc(C5CC5)[nH]n4)nc(Nc4ccc(CC#N)cc4)n3)CC2)C(C)(C)C)cc1` [4-a^neg], which “AURKA protein levels (Western blot)” value (AURKA) is on record?
Answer: no effect on AURKA levels

Question: With `Cc1ncsc1-c1ccc(CNC(=O)[C@@H]2C[C@H](O)CN2C(=O)[C@@H](NC(=O)CCOCCOCCOCCOCCN2CCN(c3ccc(Nc4ncc(Cl)c(Nc5ccccc5C(N)=O)n4)cc3)CC2)C(C)(C)C)cc1` [6-b^neg] as the molecule, how does the “AURKA protein levels (Western blot)” value (AURKA) read?
Answer: no effect on AURKA levels

Question: How did the “AURKA protein levels (Western blot)” value (AURKA) turn out when `Cc1ncsc1-c1ccc(CNC(=O)[C@@H]2C[C@@H](O)CN2C(=O)[C@@H](NC(=O)CCOCCOCCOCCN2CCN(c3cc(Nc4cc(C5CC5)[nH]n4)nc(Nc4ccc(CC#N)cc4)n3)CC2)C(C)(C)C)cc1` [4-a] was run?
Answer: only a weak reduction in AURKA levels

Question: `CC(C)(C)OC(=O)NCCOCCOCCOCCOCCC(=O)N1CCN(c2cc(Nc3cc(C4CC4)[nH]n3)nc(Nc3ccc(CC#N)cc3)n2)CC1` [4-L] was tested. Which ΔTm at 20 µM (STK6A) did it give?
Answer: 18.7 °C

Question: And the ΔTm at 20 µM (MAPK15A)?
Answer: 16.4 °C

Question: What about the ΔTm at 20 µM (EPHA2A) of the same molecule?
Answer: 8.99 °C

Question: What about the ΔTm at 20 µM (TLK1A) of the same molecule?
Answer: 3.45 °C

Question: What about the ΔTm at 20 µM (TTK1A) of the same molecule?
Answer: 4.14 °C

— article PMC11851430, “Workflow for E3 Ligase Ligand Validation for PROTAC Development” (ACS Chemical Biology, 2025)
